Measurements published in patent publication US20210113598A1, “Combination of MIDH1 Inhibitors and DNA Hypomethylating Agents (HMA)” (Deutsches Krebsforschungszentrum (DKFZ) Stiftung des …, priority 2017, published 2021).

Columns and labels:
human IDH1 mutated AML [1] = experiment: Transplantation and treatment of mice (PDX model of IDH1 mutated AML); conditions: for leukemic cells in peripheral blood: monotherapy, week 4 until end of treatment at week 12, Compound A1 150 mg/kg p.o. once daily, azacitidine 1 mg/kg s.c. days 1-5
Experimental: Leukemic cells from an AML patient with mutated DH1, NPM1, FLT3-TKD and NRAS were xenografted in immunocompromised mice. One million patient-derived AML cells collected from bone marrow and spleen of leukemic mice were injected intravenously in the tail vein of sublethally (3 Gy) irradiated NSG mice. […] The proportion of leukemic cells in peripheral blood of mice was measured with a human-specific CD45 antibody by tail vein bleeds and FACS analysis. The control groups were treated with either vehicle, Compound A1 150 mg/kg once daily p.o. continuously, or azacitidine 1 mg/kg once daily s.c. days 1-5, repeated once after 28 days. The test groups were treated with Compound A1 and azacitidine in the doses mentioned above either starting both drugs on day 1 (parallel group) or starting azacitidine on day 1 but Compound A1 on day 6 (sequential group).

[2] = system: human IDH1 mutated AML cells; experiment: Clonogenic progenitor (colony formation) assay, IDH1 mutated AML patient cells; format: cell-based; conditions: Compound A1 alone
Experimental: (§1) Colony-forming cell (CFC) units were assayed in methylcellulose (Methocult H4100; StemCell Technologies Inc.) supplemented with 10 ng/mL IL3, 10 ng/mL GM-CSF, 50 ng/mL SCF, 50 ng/mL FLT3-ligand and 3 U/mL EPO (PeproTech). […] of Compound A1 was added in combination with increasing concentrations of Azacytidine to methylcellulose containing 10exp5 human mononuclear cells and were plated in duplicate. Colonies were evaluated microscopically 10 to 14 days after plating by standard criteria. Graphs was plotted as proportion of colonies relative to vehicle treated cells.

human IDH1 mutated AML [3] = conditions: background statement, oral; cited from earlier work
IDH1 wildtype AML cells = experiment: Clonogenic progenitor (colony formation) assay, IDH1 wildtype AML patient cells; format: cell-based, human; conditions: Compound A1 alone
Experimental: as §1

IC50 [2]	SMILES	leukemic cells in peripheral blood (human IDH1 mutated AML [1])	leukemia in week 20 (human IDH1 mutated AML [1]; Compound A1 alone, 8 weeks after stopping the treatment)	anti-leukemic activity in PDX models of IDH1 mutant AML in vivo (human IDH1 mutated AML [3])	colony formation (IDH1 wildtype AML cells)
–	Nc1ncn([C@@H]2O[C@H](CO)[C@@H](O)[C@H]2O)c(=O)n1 [azacitidine, 5-azacytidine, reference compound]	constantly increased	–	–	–
100 nM	C[C@H]1C[C@@H](n2c(Nc3ccc(OC(F)(F)F)cc3)nc3cc(CCC(=O)O)ccc32)CC(C)(C)C1 [Compound A1, 3-(2-{[4-(trifluoromethoxy)phenyl]amino}-1-[(1R,5R)-3,3,5-trimethylcyclohexyl]-1H-benzimidazol-5-yl)propanoic acid]	declined	relapsed	strong anti-leukemic activity	not affected
